Test results from patent US7288541B2, “Propylcarbamate derivatives as inhibitors of serine and cysteine proteases” (SmithKline Beecham Corporation, priority 2001, dated 2007).
Read-outs that look alike come from different tables or passages of the source.

Key:
Format in all cases: biochemical
human cathepsin V = human cathepsin V (Homo sapiens, UniProt O60911); assay: Cathepsin V inhibition, fluorogenic substrate Cbz-Phe-Arg-AMC, progress curve method; conditions: Table 2, Inhibition of Cathepsins (Ki in nM); recombinant human enzyme, 2 μM substrate, pH 5.5; read-out: hCat V IC50
Chain of human cathepsin V (O60911 114-334): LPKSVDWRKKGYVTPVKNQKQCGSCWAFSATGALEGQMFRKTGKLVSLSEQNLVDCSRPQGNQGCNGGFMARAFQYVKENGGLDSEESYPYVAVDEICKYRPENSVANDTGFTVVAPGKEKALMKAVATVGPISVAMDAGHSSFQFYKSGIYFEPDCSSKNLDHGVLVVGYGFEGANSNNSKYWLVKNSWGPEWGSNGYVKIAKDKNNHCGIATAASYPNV
Procedure: (§1) All assays for cathepsin K were carried out with human and rat recombinant enzyme. Assays for cathepsins S & V were also carried out with human recombinant enzyme. Assays for human cathepsins B, H, and L were carried out with enzyme prepared from human liver tissue. Standard assay conditions for the determination of kinetic constants used a fluorogenic peptide substrate, typically (5S,8S)-13-amino-5-benzyl-13-imino-3-methylene-N-(4-methyl-2-oxo-2H-chromen-7-yl)-6-oxo-1-phenyl-2-oxa-4,7,12-triazatridecane-8-carboxamide (Cbz-Phe-Arg-AMC), and were determined in 100 mM sodium acetate at pH 5.5 containing 10 mM dithiothreitol and 120 mM sodium chloride. […]
(§2) All assays contained 10% dimethyl sulfoxide. […] Product fluorescence (excitation at 360 nm; emission at 440 nm, (except cathepsin H which used excitation at 340 nm; emission at 420 nm)) was monitored with a PerSeptive Biosystems Cytofluor II fluorescence plate reader. […]
(§3) Potential inhibitors were evaluated using the progress curve method. […] For those compounds whose progress curves were linear, the enzymatic activity (RATE) was plotted against the concentration of test compound, including inhibitor concentration of zero ([I]=0), and the IC50 determined from a fit of equation 1 to the data, RATE=Vmax/(1+([I]/IC50)) (1) where Vmax is the best fit estimate of the maximal enzymatic activity. […]

human cathepsin K = target: T1, human cathepsin K (Homo sapiens, UniProt P43235); assay: Cathepsin K inhibition, fluorogenic substrate Cbz-Phe-Arg-AMC, progress curve method; conditions: recombinant human enzyme, 10 μM substrate, read-out: hCat K IC50
T1 construct: The proform of cathepsin K was converted to mature cathepsin K by brief exposure to pH 4; made in house; host or cells: baculovirus; Trichoplusia ni High Five cells (virus raised in Sf-9)
T1 sequence (P43235 115-329): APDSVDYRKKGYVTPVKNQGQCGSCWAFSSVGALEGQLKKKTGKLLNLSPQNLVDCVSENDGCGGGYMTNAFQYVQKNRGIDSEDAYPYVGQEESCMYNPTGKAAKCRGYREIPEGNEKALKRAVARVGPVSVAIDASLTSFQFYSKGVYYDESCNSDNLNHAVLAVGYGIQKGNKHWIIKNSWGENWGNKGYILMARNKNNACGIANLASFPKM
Procedure: All assays for cathepsin K were carried out with human and rat recombinant enzyme. Assays for cathepsins S & V were also carried out with human recombinant enzyme. Assays for human cathepsins B, H, and L were carried out with enzyme prepared from human liver tissue. […] A stock substrate solution of Cbz-Phe-Arg-AMC was prepared at a concentration of 50 mM in dimethyl sulfoxide. This substrate was diluted into the assay for a final substrate concentration of 10 μM in the rat cathepsin K, human cathepsin K, and human cathepsin B assays; a final substrate concentration of 5 μM in the human cathepsin L assay; and a final substrate concentration of 2 μM in the human cathepsin V assay.
All assays contained 10% dimethyl sulfoxide. […] All assays were conducted at 30° C. Product fluorescence (excitation at 360 nm; emission at 440 nm, (except cathepsin H which used excitation at 340 nm; emission at 420 nm)) was monitored with a PerSeptive Biosystems Cytofluor II fluorescence plate reader. Product progress curves were generated over 2.3 h monitoring the formation of 7-amino-4-methylcoumarin product (or β-naphthalamide for cathepsin H).
Human and Rat Cathepsin K:
The cells continued to grow for 72 h post-infection, before the virus was harvested by centrifugation at 1400×g for 30 min.
One and one-half liters of Trichoplusia ni (T. ni) High Five (TM) cells [JRH Biosciences, Woodland, Calif. […] The cells were grown for 24 h at 28° C., 50 RPM, and 50% dissolved oxygen. […] Media were separated from cells at a rate of 1 L/min using the Centritech 100 (TM) continuous-flow centrifuge (DuPont) operating at 200×g.
Protein Purification: Media (human and rat) were filtered through a Whatman 3 filter, and then loaded onto a 25 mL Poros HS II (26 mm×47 mm) cation exchange column equilibrated in 25 mM sodium acetate at pH 5.5 (equilibration buffer). The column was washed until the absorbance reached the baseline value, and then the protein was eluted with a linear gradient from 0–2 M sodium chloride in the equilibration buffer. Column fractions were analyzed by SDS-PAGE, N-terminal sequencing, and mass spectrometry. Fractions containing the proform of cathepsin K were pooled and frozen at −80° C. The proform was concentrated in an Amicon Centriprep 10 and fractionated with a Superdex 75 column (26 mm×600 mm, Pharmacia) equilibrated in 400 mM sodium chloride, 25 mM sodium acetate at pH 5.5.
Cathepsin K Activation: The proform of cathepsin K was converted to mature cathepsin K by brief exposure to pH 4 in the presence of 5 mM L-cysteine. Typically, 5 mM L-cysteine was added to 10 mL of approximately 1 mg/mL procathepsin K. One mL of this solution was diluted ten-fold into 450 mM sodium acetate at pH 4.0 containing 5 mM L-cysteine. This solution was reacted at 23° C. for 2 min before neutralization with 2 mL 1.8 M sodium acetate at pH 6.0. The neutralized sample was added to the remaining 9 mL of procathepsin K. The mixture was incubated at 4° C. for 2–3 days. The activated cathepsin K was chromatographed on a Poros HS II column as described above.
Potential inhibitors were evaluated using the progress curve method. Assays were carried out in the presence of variable concentrations of test compound. Reactions were initiated by addition of buffered solutions of inhibitor and substrate to enzyme. Data analysis was conducted according to one of two procedures depending on the appearance of the progress curves in the presence of inhibitors. […] Ki values were calculated from IC50 values using equation 2 assuming a competitive model.

human cathepsin L = target: T2, human cathepsin L (Homo sapiens, UniProt P07711); assay: Cathepsin L inhibition, fluorogenic substrate Cbz-Phe-Arg-AMC, progress curve method; conditions: Table 2, Inhibition of Cathepsins (Ki in nM); enzyme from human liver tissue, 5 μM substrate, pH 5.5; read-out: hCat L IC50
T2 construct: enzyme prepared from human liver tissue; from tissue; host or cells: human liver
T2 sequence (P07711 114-288 limits assumed): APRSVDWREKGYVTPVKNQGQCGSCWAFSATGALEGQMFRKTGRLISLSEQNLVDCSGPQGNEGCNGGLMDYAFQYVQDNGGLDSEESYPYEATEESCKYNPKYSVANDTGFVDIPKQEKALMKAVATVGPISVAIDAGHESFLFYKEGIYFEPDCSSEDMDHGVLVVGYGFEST
T2 sequence (P07711 292-333 limits assumed): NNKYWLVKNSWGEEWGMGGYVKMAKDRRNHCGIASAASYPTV
Procedure: as §1, §2, §3

human cathepsin B = target: T3, human cathepsin B (Homo sapiens, UniProt P07858); assay: Cathepsin B inhibition, fluorogenic substrate Cbz-Phe-Arg-AMC, progress curve method; conditions: Table 2, Inhibition of Cathepsins (Ki in nM); enzyme from human liver tissue, 10 μM substrate, pH 5.5; read-out: hCat B IC50
T3 construct: enzyme prepared from human liver tissue; from tissue; host or cells: human liver
Procedure: as §1, §2, §3

human cathepsin S = human cathepsin S (Homo sapiens, UniProt P25774); assay: Cathepsin S inhibition, fluorogenic substrate Cbz-Val-Val-Arg-AMC, progress curve method; conditions: Table 2, Inhibition of Cathepsins (Ki in nM); recombinant human enzyme, 10 μM substrate, pH 5.5; read-out: hCat S IC50
Chain of human cathepsin S (P25774 115-331): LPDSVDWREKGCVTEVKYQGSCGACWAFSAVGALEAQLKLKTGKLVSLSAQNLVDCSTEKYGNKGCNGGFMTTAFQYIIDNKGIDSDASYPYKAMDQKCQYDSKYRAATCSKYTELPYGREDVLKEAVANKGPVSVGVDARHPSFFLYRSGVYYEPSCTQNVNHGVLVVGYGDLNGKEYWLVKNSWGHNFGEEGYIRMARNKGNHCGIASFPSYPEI
Procedure: as §1, §2, §3

[1] = Table 1, Inhibition of Cathepsin K (Ki in nM), pH 5.5, 30° C.
[2] = Table 2, Inhibition of Cathepsins (Ki in nM), pH 5.5

Row | Structure (SMILES) | IC50 (human cathepsin V) [nM] | IC50 (human cathepsin K; [1]) [nM] | IC50 (human cathepsin K; [2]) [nM] | IC50 (human cathepsin L) [nM] | IC50 (human cathepsin B) [nM] | IC50 (human cathepsin S) [nM]
1 | CCCC[C@H](NC(=O)O[C@@H]1CN(c2nc3ccccc3s2)CC1(C)C)C(=O)CNS(=O)(=O)c1ccccn1 [Example 6, (3S)-1-(1,3-benzothiazol-2-yl)-4,4-dimethylpyrrolidinyl (1S)-1-{[(2-pyridinylsulfonyl)amino]acetyl}pentylcarbamate] | 100 to 1000 | 100 to 1000 | 100 to 1000 | 1000 to 10000 | 1000 to 10000 | 10 to 100
2 | C[C@H](NC(=O)O[C@H](Cn1cnc2cc(Cl)c(Cl)cc21)C(C)(C)C)C(=O)CNS(=O)(=O)c1ccccn1 [Example 16, (1S)-1-[(5,6-dichloro-1H-benzimidazol-1-yl)methyl]-2,2-dimethylpropyl (1S)-1-methyl-2-oxo-3-[(2-pyridinylsulfonyl)amino]propylcarbamate] | < 10 | < 10 | < 10 | 10 to 100 | 10 to 100 | < 10
